This is an account of results in US20100260830A1, “Liposomal Formulations of Tocopheryl Amides” (priority 2009, published 2010).

Like-named read-outs stand apart in the source and are kept apart here.

The subject of data set [1] is mouse melanoma B16F10 cells. Briefly: Cytotoxic effect on melanoma cells in vitro. The procedure: (§1) IC50 values were calculated from MTT activity (Bank, U et al, 1991, Measurement of cellular activity by means of the MTT-test. Allerg Immunol 37:119-123).
Data set [2] deals with Meso-2 cells. Briefly: IC50 against Meso-2 cells (FIG. 14A). In kind it is cell-based. To be noted: values only in FIG. 14A. From the text: In FIG. 14A, esters and amides of the chromanol and N-chroman genera are compared. […] There is a correlation between increased potency and CLogP, where amide lipophilicity is consistently greater than that of the corresponding esters. Other factors of molecular structure also play a role.

For data set [3], the system named is granulocyte/macrophage colony forming cells (GM-CFC). Briefly: GM-CFC colony formation in vitro. The format is cell-based, Balb/c mouse. To be noted: Balb/c bone marrow GM progenitors. The procedure:
FIGS. 8A and 8B are comparative views illustrating the paradoxical effect of the liposomal formulation on non-specific toxicity, here to granulocyte/macrophage colony forming cells (GM-CFC). […] In the left panel, GM progenitors were isolated from Balb/c mouse bone morrow and treated with αTOS (left) or αTAM (right, black bars) at the concentrations shown, the number of colonies was counted and expressed per individual well. In the right panel, Balb/c mice were injected i.p. with the vehicle (40), empty liposomes (41) liposomal αTOS at 100 mg/kg (42), αTAM at 10 mg/kg (43), or αTAM at 25 mg/kg (44), and GM-CFC colonies in femoral bone marrow counted 48 h later (* denotes statistically significant differences with pb0.05 in comparison to control). […] This surprising result is paradoxical, and points to the importance of the formulation vehicle as a technological advance in achieving clinical trials of these compounds.

Data set [4] is described as follows: Injection of αTAM dissolved in DMSO or ethanol (Prior Art I). In kind it is in vivo, mice. From the text: In earlier work to develop a formulation of αTAM for preclinical study, the compound was first dissolved in DMSO or ethanol as has been characteristic of studies of this kind (Weber et al, 2002, Vitamin E succinate is a potent novel antineoplastic agent with high selectivity and cooperativity with tumor necrosis factor-related apoptosis-inducing ligand (Apo2 ligand) in vivo, Clin Cancer Res 8:863-69; Yu et al, 1999, Induction of apoptosis in human breast cancer cells by tocopherols and tocotrienols, Nutr Cancer 33:26-32).

Data set [5] concerns non-malignant cells (e.g. lymphocytes and bone marrow progenitors). Briefly: In vitro models of non-malignant cells. The format is cell-based.
In data set [6] the test system is human breast cancer cell line MCF-7. As to the kind of experiment: MTT cytotoxicity IC50. In kind it is cell-based. To be noted: calculated from MTT activity. The protocol:
as §1

Data set [7] in a line: General toxicity in mice by the Berlin Test. In kind it is in vivo. To be noted: 5 mg/kg in DMSO. From the text:
The general toxicity of liposomal preparations of αTAM was studied further in mice by the Berlin Test. Untreated mice and mice treated with empty liposomes were used as controls. […] Symptoms including spasms and heavy breathing pointed to neurotoxicity, embolie or anaphylactic reaction. Therefore, we have discontinued experiments that involved the use of non-liposomal formulations of αTAM.

The subject of data set [8] is Jurkat T cells. Briefly: Mitochondrial membrane potential ΔΨ, flow cytometry with JC-1 probe. In kind it is cell-based. An excerpt:
FIG. 3 illustrates the effect of selected chromans on mitochondrial membrane potential ΔΨ in vitro. […] Deviations in ΔΨ were estimated by flow cytometry followed by cell staining with the polychromatic JC-1 probe.
In general terms: A flow cytometer gives signals particle by particle.

For orientation: IC50 means the concentration needed to halve the response being measured. Regarding `Cc1c(C)c2c(c(C)c1NC(=O)/C=C\C(=O)O)CCC(C)(CCCC(C)CCCC(C)CCCC(C)C)O2` (stereo not drawn) [αTAM, α-tocopheryl maleamide], the tolerated dose (given in liposomal formulation) was 500 μg per 20 g mouse. For the same compound, where the note is “mouse, in vivo”, the “dose feasible for human use” value is recorded as 1.75 g and the safe dose is reported as 25 mg/kg. The “cytotoxic potential (order)” value in data set [1] is listed as “αTAM>αTOM>αTOS>>αTOH”. Moreover, in data set [2], the “cytolytic potency versus the corresponding tocopheryl succinates” value is given as “markedly increased cytolytic potency”. Also, the “toxicity to GM progenitors in vitro” value in data set [3] is on record as “the compound is toxic in vitro”. Besides, the “outcome of one or two injections in DMSO” value in [4] (Balb/c, C57B1 or FVB/N c-neu mice) is “caused death of the animals”. The “toxicity of solution in DMSO (or ethanol)” value in [4] (non-liposomal solution) is on record as “extremely toxic”. For the same compound, the “cytotoxicity to non-malignant cells” value in data set [5] is “cytotoxic to non-malignant cells”. For the same compound, the IC50 in [6] is 13.3 µM. Also, the “outcome of free compound administered in DMSO” value in data set [7] was “caused rapid death of the animals”. Also, in data set [8], the “dissipating mitochondrial inner transmembrane potential” value was “potent in dissipating mitochondrial inner transmembrane potential”.

Turning to `Cc1c(C)c2c(c(C)c1NC(=O)CCC(=O)O)CCC(C)(CCCC(C)CCCC(C)CCCC(C)C)O2` (stereo not drawn) [αTAS, α-tocopheryl succinamide], in data set [8], the “dissipating mitochondrial inner transmembrane potential” value is listed as “potent in dissipating mitochondrial inner transmembrane potential”.

For the compound `Cc1c(C)c2c(c(C)c1O)CC[C@@](C)(CCC[C@H](C)CCC[C@H](C)CCCC(C)C)O2` [αTOH], the “cytotoxic potential (order)” value in data set [1] was “No toxicity was observed”.

With tocopheryl succinate [αTOS], the “cytotoxic potential (order)” value in [1] (B16F10 in vitro) is on record as “αTAM>αTOM>αTOS>>αTOH”.
